Test results published in the NIST ThermoML archive (doi:10.1016/j.tca.2004.11.034).

What was measured:
[1] = xn = mol fraction of the nth substance listed; details: 101.33 kPa, Liquid; for speed of sound: Anton Paar DSA 48; for mass density: Vibrating tube method
[2] = excess molar enthalpy (molar enthalpy of mixing); xn = mol fraction of the nth substance listed; details: 298.15 K, 101.33 kPa, Liquid, Flow calorimetry
[3] = 101.33 kPa, Liquid; for speed of sound: Anton Paar DSA 48; for mass density: Vibrating tube method

CCC(C)Cl (stereo not given) [2-chlorobutane] + CC1CCCO1
[1]
Details | mass density, 298.15 K [kg/m3] | mass density, 313.15 K [kg/m3] | speed of sound, 298.15 K [m/s] | speed of sound, 313.15 K [m/s]
x2 = 0.049 | 866.71 | – | 1073.2 | –
x2 = 0.0565 | – | 849.52 | – | 1013.7
x2 = 0.1006 | 866.01 | – | 1080.1 | –
x2 = 0.101 | – | 848.97 | – | 1019.3
x2 = 0.201 | – | 847.69 | – | 1031.9
x2 = 0.2041 | 864.52 | – | 1093.8 | –
x2 = 0.3034 | 862.99 | – | 1107.1 | –
x2 = 0.3045 | – | 846.28 | – | 1045.1
x2 = 0.4039 | – | 844.81 | – | 1057.9
x2 = 0.4055 | 861.31 | – | 1120.8 | –
x2 = 0.5026 | 859.61 | – | 1134 | –
x2 = 0.5074 | – | 843.19 | – | 1071.3
x2 = 0.6005 | 857.81 | – | 1147.3 | –
x2 = 0.6044 | – | 841.58 | – | 1083.9
x2 = 0.6989 | 855.91 | – | 1160.9 | –
x2 = 0.7042 | – | 839.79 | – | 1097
x2 = 0.8022 | 853.81 | – | 1175.2 | –
x2 = 0.8034 | – | 837.9 | – | 1110
x2 = 0.8988 | – | 835.97 | – | 1122.6
x2 = 0.8991 | 851.69 | – | 1188.7 | –
x2 = 0.9456 | – | 835.03 | – | 1128.8
x2 = 0.9472 | 850.55 | – | 1195.3 | –

[2]
Details | excess molar enthalpy [kcal/mol]
x2 = 0.057 | -0.00454
x2 = 0.104 | -0.01
x2 = 0.201 | -0.0198
x2 = 0.298 | -0.0277
x2 = 0.398 | -0.033
x2 = 0.497 | -0.0356
x2 = 0.597 | -0.0359
x2 = 0.696 | -0.0323
x2 = 0.799 | -0.0251
x2 = 0.901 | -0.0141
x2 = 0.954 | -0.00717

CC1CCCO1 (stereo not given) [2-methyltetrahydrofuran] + CCCCCl
[1]
Details | mass density, 298.15 K [kg/m3] | mass density, 313.15 K [kg/m3] | speed of sound, 298.15 K [m/s] | speed of sound, 313.15 K [m/s]
x1 = 0.0507 | – | 862.5 | – | 1061
x1 = 0.0535 | 879.23 | – | 1123.2 | –
x1 = 0.0972 | 878.04 | – | 1126.8 | –
x1 = 0.1022 | – | 861.16 | – | 1065
x1 = 0.1958 | 875.19 | – | 1134.9 | –
x1 = 0.2014 | – | 858.46 | – | 1072.6
x1 = 0.2975 | 872.17 | – | 1143.3 | –
x1 = 0.3019 | – | 855.6 | – | 1080.3
x1 = 0.4006 | 869.04 | – | 1151.9 | –
x1 = 0.4047 | – | 852.6 | – | 1088.5
x1 = 0.5017 | – | 849.72 | – | 1096.2
x1 = 0.5031 | 865.88 | – | 1160.5 | –
x1 = 0.6017 | 862.77 | – | 1168.8 | –
x1 = 0.6026 | – | 846.65 | – | 1104.3
x1 = 0.6986 | 859.63 | – | 1177 | –
x1 = 0.7017 | – | 843.55 | – | 1112.3
x1 = 0.7994 | – | 840.43 | – | 1120.2
x1 = 0.8009 | 856.27 | – | 1185.6 | –
x1 = 0.9005 | 852.87 | – | 1194.1 | –
x1 = 0.9009 | – | 837.13 | – | 1128.3
x1 = 0.9487 | – | 835.54 | – | 1132.2
x1 = 0.9489 | 851.15 | – | 1198.2 | –

[2]
Details | excess molar enthalpy [kcal/mol]
x1 = 0.057 | -0.00669
x1 = 0.104 | -0.0139
x1 = 0.201 | -0.0277
x1 = 0.298 | -0.038
x1 = 0.398 | -0.0466
x1 = 0.497 | -0.0502
x1 = 0.597 | -0.0495
x1 = 0.696 | -0.0449
x1 = 0.799 | -0.0351
x1 = 0.901 | -0.0203
x1 = 0.954 | -0.0103

CCCCCl [1-chlorobutane]
[3]
Details | mass density [kg/m3] | speed of sound [m/s]
298.15 K | 880.69 | 1118.8
313.15 K | 863.86 | –
333.15 K | – | 1057.1

CC(C)(C)Cl [2-chloro-2-methylpropane] + CC1CCCO1
[1]
Details | mass density, 298.15 K [kg/m3] | mass density, 313.15 K [kg/m3] | speed of sound, 298.15 K [m/s] | speed of sound, 313.15 K [m/s]
x2 = 0.0505 | 837.22 | – | 993.8 | –
x2 = 0.0517 | – | 819.88 | – | 932.6
x2 = 0.0895 | – | 820.9 | – | 941.2
x2 = 0.108 | 838.65 | – | 1006.1 | –
x2 = 0.195 | – | 823.23 | – | 964
x2 = 0.2065 | 840.58 | – | 1027.5 | –
x2 = 0.3015 | – | 825.36 | – | 986.5
x2 = 0.3136 | 842.3 | – | 1050.9 | –
x2 = 0.3969 | – | 827.1 | – | 1006.8
x2 = 0.4125 | 843.81 | – | 1072.6 | –
x2 = 0.4986 | – | 828.77 | – | 1028.7
x2 = 0.5156 | 845.26 | – | 1095.2 | –
x2 = 0.605 | – | 830.31 | – | 1051.5
x2 = 0.6124 | 846.46 | – | 1116.5 | –
x2 = 0.6978 | – | 831.4 | – | 1071.1
x2 = 0.7107 | 847.59 | – | 1138.2 | –
x2 = 0.7998 | – | 832.45 | – | 1092
x2 = 0.8031 | 848.42 | – | 1158.7 | –
x2 = 0.8947 | – | 833.18 | – | 1111.7
x2 = 0.9022 | 848.98 | – | 1180.6 | –
x2 = 0.9476 | 849.12 | – | 1190.7 | –
x2 = 0.949 | – | 833.54 | – | 1123.7

[2]
Details | excess molar enthalpy [kcal/mol]
x2 = 0.057 | -0.00335
x2 = 0.104 | -0.00717
x2 = 0.201 | -0.0146
x2 = 0.298 | -0.0198
x2 = 0.398 | -0.0241
x2 = 0.497 | -0.0261
x2 = 0.597 | -0.0253
x2 = 0.696 | -0.0227
x2 = 0.799 | -0.0184
x2 = 0.901 | -0.0105
x2 = 0.954 | -0.0055

CC(C)(C)Cl [2-chloro-2-methylpropane]
[3]
Details | mass density [kg/m3] | speed of sound [m/s]
298.15 K | 835.67 | 983.1
313.15 K | 818.43 | –
333.15 K | – | 920.3

CCC(C)Cl (stereo not given) [2-chlorobutane]
[3]
Details | mass density [kg/m3] | speed of sound [m/s]
298.15 K | 867.37 | 1066.8
313.15 K | 850.16 | –
333.15 K | – | 1006.9

CC1CCCO1 (stereo not given) [2-methyltetrahydrofuran]
[3]
Details | mass density [kg/m3] | speed of sound [m/s]
298.15 K | 849.2 | 1202.6
313.15 K | 833.88 | –
333.15 K | – | 1136.2

CC(C)CCl [1-chloro-2-methylpropane] + CC1CCCO1
[1]
Details | mass density, 298.15 K [kg/m3] | mass density, 313.15 K [kg/m3] | speed of sound, 298.15 K [m/s] | speed of sound, 313.15 K [m/s]
x2 = 0.0515 | 870.05 | – | 1085.4 | –
x2 = 0.0553 | – | 852.78 | – | 1023
x2 = 0.1006 | 869.23 | – | 1091.3 | –
x2 = 0.1014 | – | 852.08 | – | 1028.6
x2 = 0.1992 | – | 850.48 | – | 1040.5
x2 = 0.2026 | 867.39 | – | 1103.8 | –
x2 = 0.3 | – | 848.74 | – | 1052.7
x2 = 0.3059 | 865.41 | – | 1116.6 | –
x2 = 0.4062 | 863.41 | – | 1129.1 | –
x2 = 0.4072 | – | 846.78 | – | 1065.7
x2 = 0.5015 | – | 844.98 | – | 1077
x2 = 0.505 | 861.34 | – | 1141.4 | –
x2 = 0.6022 | 859.23 | – | 1153.5 | –
x2 = 0.605 | – | 842.9 | – | 1089.3
x2 = 0.7022 | – | 840.83 | – | 1100.8
x2 = 0.7035 | 856.92 | – | 1166.1 | –
x2 = 0.8 | – | 838.61 | – | 1112.4
x2 = 0.8012 | 854.57 | – | 1178.2 | –
x2 = 0.8967 | – | 836.35 | – | 1123.8
x2 = 0.9099 | 851.75 | – | 1191.6 | –
x2 = 0.9491 | – | 835.09 | – | 1130
x2 = 0.9492 | 850.66 | – | 1196.4 | –

[2]
Details | excess molar enthalpy [kcal/mol]
x2 = 0.06 | -0.00789
x2 = 0.109 | -0.016
x2 = 0.21 | -0.0315
x2 = 0.309 | -0.0416
x2 = 0.411 | -0.0504
x2 = 0.511 | -0.0535
x2 = 0.609 | -0.0526
x2 = 0.707 | -0.0468
x2 = 0.806 | -0.0361
x2 = 0.904 | -0.0201
x2 = 0.954 | -0.0103

CC(C)CCl [1-chloro-2-methylpropane]
[3]
Details | mass density [kg/m3] | speed of sound [m/s]
298.15 K | 870.89 | 1079.2
313.15 K | 853.56 | –
333.15 K | – | 1016.3
